Experimental findings from PubChem BioAssay AID434987 (Southern Research Specialized Biocontainment Screening …, 2010) are described below.

The source made the active and inactive calls. How the calls were made is not given here.

This assay relates to M. tuberculosis H37Rv growth inhibition with meropenem. As to the kind of experiment: dose response, H37Rv, with and without meropenem (AID 434987).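 Further: growth over 7 days at 37 °C before Alamar Blue read on day 9.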
Setting [1] is: M. tuberculosis H37Rv growth inhibition, measured here: IC50 without meropenem.
Where [2] appears, read: M. tuberculosis H37Rv growth inhibition, measured here: IC90 without meropenem.
Where [3] appears, read: measured here: IC90 with meropenem.

`c1ccc(-c2oc3ncnc(NCCN4CCOCC4)c3c2-c2ccccc2)cc1`: the IC50 (as a rule, the concentration needed to halve the response being measured) is > 100 µM (inactive). This compound also returned an IC50 under setting [1] of over 100 µM. In addition, the IC90 (usually the concentration needed for an effect of 90%) under setting [2] was over 100 µM. For the same compound, under setting [3], the IC90 was over 100 µM.
As for `COc1cc(OC)c2ccc(=O)oc2c1C(CC(=O)N1CCN(c2ccccc2)CC1)c1ccc2c(c1)OCO2` (stereo not drawn), the IC50 was 91.1 µM (inactive). The same compound had an IC50 under setting [1] of over 100 µM. Under setting [2], the concentration for an effect of 90% (IC90) was over 100 µM. Moreover, under setting [3], the IC90 is over 100 µM.
For the compound `Cc1cc(C)cc(OCC(=O)NNC(=O)c2ccccn2)c1`, the IC50 was 1.66 µM. This compound also returned an IC50 under setting [1] of 10.9 µM. Moreover, the IC90 under setting [2] is 22.3 µM. This compound registered an IC90 under setting [3] of 16 µM.
In the same order, the values of `COc1ccc(C(=O)n2c(SC)nc3cc4c(cc32)OCCO4)cc1` are 34.3 µM, over 100 µM, over 100 µM and over 100 µM.
In the same order, the values of `CC1(C)CC(CCNC(=O)CCl)(c2ccccc2)CCO1` (stereo not drawn) are 2.38 µM, 9.13 µM, 34.7 µM and 8.14 µM.
On to `CCCC(=O)Nc1ccc(NC(=S)NC(=O)c2cccs2)cc1`, for which the IC50 is > 100 µM (inactive). This compound showed a concentration for half-maximal inhibition (IC50) under setting [1] of over 100 µM. In addition, under setting [2], the IC90 was over 100 µM. The compound further showed a concentration for an effect of 90% (IC90) under setting [3] of over 100 µM.
On to `CC1CCc2c(sc(NC(=O)CCCn3cnc([N+](=O)[O-])n3)c2C(N)=O)C1` (stereo not drawn), for which the IC50 is 12.8 µM. Further, the IC50 under setting [1] was determined as 32.7 µM. In addition, the IC90 under setting [2] was over 100 µM. Besides, the IC90 under setting [3] was 90.4 µM.
In the same order, the values of `CC(C)(C)c1ccc(C(=O)Oc2ccc3c(c2)OCC3=O)cc1` are 8.64 µM, over 100 µM, over 100 µM and 29.4 µM.
In the same order, the values of `CCc1ccc2c(c1)C(c1ccc([N+](=O)[O-])cc1)=NNC(c1ccc(C)cc1)=N2` are > 100 µM (inactive), over 100 µM, over 100 µM and over 100 µM.
As for `Cc1ccc(C)c(CSc2nnc(C)c(=O)n2N)c1`, the IC50 is 5.73 µM. Under setting [1], this compound showed an IC50 of 14.1 µM. Under setting [2], this compound returned a 90% effect concentration (IC90) of 39.5 µM. This compound yielded an IC90 under setting [3] of 20.4 µM.
In the same order, the values of `COc1ccc(S(=O)(=O)N(C(=O)c2ccncc2)c2ccc3oc4c(c3c2)CCCC4)cc1` are 99 µM (inactive), 94.7 µM, over 100 µM and over 100 µM.
In the same order, the values of `Cc1ccc(SCc2c(-c3ccccc3)nn(C)c2Cl)cc1` are 20.9 µM, 58.7 µM, over 100 µM and over 100 µM.
In the same order, the values of `O=C(CSc1nnc(-c2ccncc2)o1)c1cccc([N+](=O)[O-])c1` are 31.6 µM (inactive), 46.9 µM, over 100 µM and 45.4 µM.
`CCCc1cc(C(=O)Nc2ccc(C(C)=O)cc2)no1`: the IC50 is 11.7 µM (inactive). The IC50 under setting [1] turned out to be 24.4 µM. This compound also showed an IC90 under setting [2] of over 100 µM. Under setting [3], this compound returned an IC90 of 48.8 µM.
In the same order, the values of `COc1cc(NC(=O)C2CCCCC2)c(OC)cc1NC(=O)CN1CCCCC1` are 9.28 µM, 47.4 µM, over 100 µM and over 100 µM.
In the same order, the values of `CCN1C(=O)[C@@H]2[C@@H](c3ccc(-c4ccc(Cl)c(Cl)c4)c(OC)c3)N3CCC[C@@]3(C(=O)OC)[C@@H]2C1=O` are > 100 µM (inactive), over 100 µM, over 100 µM and over 100 µM.
On the same counts, the results for `COc1ccccc1N1CCN(S(=O)(=O)c2ccc3nc(-c4ccccc4)[nH]c3c2)CC1` are > 100 µM (inactive), over 100 µM, over 100 µM and over 100 µM.
On to `CN(NC(=O)c1c(Cl)cccc1Cl)c1cccc(Cl)n1`, for which the half-maximal inhibitory concentration (IC50) was 7.34 µM. Further, the IC50 under setting [1] stood at 62.3 µM. In addition, the IC90 under setting [2] was over 100 µM. The compound further yielded an IC90 under setting [3] of over 100 µM.
As for `COC(=O)c1c(NC(=O)c2ccc(C)cc2)csc1C`, the IC50 was 48.9 µM (inactive). In addition, the IC50 under setting [1] came out at 84 µM. Further, under setting [2], the 90% effect concentration (IC90) was over 100 µM. Besides, the IC90 under setting [3] was over 100 µM.
Take `O=C(O)c1cc(-c2ccco2)nc2ccc(Br)cc12`: the IC50 was > 100 µM (inactive). Moreover, the IC50 under setting [1] was over 100 µM. This compound gave a concentration for an effect of 90% (IC90) under setting [2] of over 100 µM. The same compound had an IC90 under setting [3] of over 100 µM.
`CCOC(=O)N1CCN(CC(=O)Nc2nnc(C(F)(F)F)s2)CC1`: the IC50 was 27.8 µM. This compound returned an IC50 under setting [1] of over 100 µM. Further, under setting [2], the IC90 was over 100 µM. The concentration for an effect of 90% (IC90) under setting [3] worked out at 50.1 µM.
For the compound `O=C(CSc1ccc([N+](=O)[O-])cn1)Nc1ccc(N2CCOCC2)cc1`, the IC50 is 4.82 µM. The IC50 under setting [1] worked out at 17.6 µM. For the same compound, the 90% effect concentration (IC90) under setting [2] was over 100 µM. The compound also came in with an IC90 under setting [3] of over 100 µM.
